Results taken from ChEMBL document CHEMBL2331144, “Synthesis and anticancer activity of analogues of phenstatin, with a phenothiazine A-ring, as a new class of microtubule-targeting agents” (Bioorg Med Chem Lett, 2013).
pIC50: −log10 of the molar value.

Assays:
CCRF-CEM = experiment: Growth inhibition of human CCRF-CEM cells after 48 hrs by sulforhodamine B assay; assay type: functional
[1] = Growth inhibition of human EKVX cells after 48 hrs by sulforhodamine B assay; assay type: functional
HCT-15 = experiment: Growth inhibition of human HCT15 cells after 48 hrs by sulforhodamine B assay; assay type: functional; details: HCT-15, 48 h
LOX IMVI = experiment: Growth inhibition of human LOXIMVI cells after 48 hrs by sulforhodamine B assay; assay type: functional
UACC-62 = experiment: Growth inhibition of human UACC62 cells after 48 hrs by sulforhodamine B assay; assay type: functional; details: UACC-62, 48 h
OVCAR-8 = experiment: Growth inhibition of human OVCAR8 cells after 48 hrs by sulforhodamine B assay; assay type: functional; details: OVCAR-8, 48 h
SN12C = experiment: Growth inhibition of human SN12C cells after 48 hrs by sulforhodamine B assay; assay type: functional
A549 = experiment: Growth inhibition of human A549/ATCC cells after 48 hrs by sulforhodamine B assay; assay type: functional; details: A549, 48 h
T47D = experiment: Growth inhibition of human T47D cells after 48 hrs by sulforhodamine B assay; assay type: functional
RXF 393 = experiment: Growth inhibition of human RXF393 cells after 48 hrs by sulforhodamine B assay; assay type: functional; details: RXF 393, 48 h
OVCAR-4 = experiment: Growth inhibition of human OVCAR4 cells after 48 hrs by sulforhodamine B assay; assay type: functional; details: OVCAR-4, 48 h
TK-10 = experiment: Growth inhibition of human TK10 cells after 48 hrs by sulforhodamine B assay; assay type: functional; details: TK-10, 48 h
KM12 = experiment: Growth inhibition of human KM12 cells after 48 hrs by sulforhodamine B assay; assay type: functional; details: KM12, 48 h
786-0 = experiment: Growth inhibition of human 786-0 cells after 48 hrs by sulforhodamine B assay; assay type: functional; details: 786-0, 48 h
A498 = experiment: Growth inhibition of human A498 cells after 48 hrs by sulforhodamine B assay; assay type: functional; details: A498, 48 h
RPMI-8226 = experiment: Growth inhibition of human RPMI8226 cells after 48 hrs by sulforhodamine B assay; assay type: functional; details: RPMI-8226, 48 h
IGROV-1 = experiment: Growth inhibition of human IGROV1 cells after 48 hrs by sulforhodamine B assay; assay type: functional; details: IGROV-1, 48 h
UO-31 = experiment: Growth inhibition of human UO31 cells after 48 hrs by sulforhodamine B assay; assay type: functional; details: UO-31, 48 h
NCI-H522 = experiment: Growth inhibition of human NCI-H522 cells after 48 hrs by sulforhodamine B assay; assay type: functional; details: NCI-H522, 48 h
OVCAR-3 = experiment: Growth inhibition of human OVCAR3 cells after 48 hrs by sulforhodamine B assay; assay type: functional; details: OVCAR-3, 48 h
MOLT-4 = experiment: Growth inhibition of human MOLT4 cells after 48 hrs by sulforhodamine B assay; assay type: functional; details: MOLT-4, 48 h
SW-620 = experiment: Growth inhibition of human SW620 cells after 48 hrs by sulforhodamine B assay; assay type: functional; details: SW-620, 48 h
SK-MEL-5 = experiment: Growth inhibition of human SK-MEL-5 cells after 48 hrs by sulforhodamine B assay; assay type: functional; details: SK-MEL-5, 48 h
SR = experiment: Growth inhibition of human SR cells after 48 hrs by sulforhodamine B assay; assay type: functional
SK-MEL-2 = experiment: Growth inhibition of human SK-MEL-2 cells after 48 hrs by sulforhodamine B assay; assay type: functional; details: SK-MEL-2, 48 h
BT-549 = experiment: Growth inhibition of human BT549 cells after 48 hrs by sulforhodamine B assay; assay type: functional; details: BT-549, 48 h
NCI-H23 = experiment: Growth inhibition of human NCI-H23 cells after 48 hrs by sulforhodamine B assay; assay type: functional; details: NCI-H23, 48 h
HOP-62 = experiment: Growth inhibition of human HOP62 cells after 48 hrs by sulforhodamine B assay; assay type: functional; details: HOP-62, 48 h
HT-29 = experiment: Growth inhibition of human HT-29 cells after 48 hrs by sulforhodamine B assay; assay type: functional; details: HT-29, 48 h
Ovis aries = species on record: Ovis aries; experiment: Inhibition of sheep brain tubulin polymerization at 100 uM using DAPI by fluorimetry
SF-268 = experiment: Growth inhibition of human SF268 cells after 48 hrs by sulforhodamine B assay; assay type: functional; details: SF-268, 48 h
PC-3 = experiment: Growth inhibition of human PC3 cells after 48 hrs by sulforhodamine B assay; assay type: functional; details: PC-3, 48 h
[2] = Inhibition of sheep brain tubulin polymerization using DAPI by fluorimetry; parameters: species or system Ovis aries
CAKI-1 = experiment: Growth inhibition of human CAKI-1 cells after 48 hrs by sulforhodamine B assay; assay type: functional; details: CAKI-1, 48 h
HCT-116 = experiment: Growth inhibition of human HCT116 cells after 48 hrs by sulforhodamine B assay; assay type: functional; details: HCT-116, 48 h
MDA-MB-468 = experiment: Growth inhibition of human MDA-MB-468 cells after 48 hrs by sulforhodamine B assay; assay type: functional; details: MDA-MB-468, 48 h
K562 = experiment: Growth inhibition of human K562 cells after 48 hrs by sulforhodamine B assay; assay type: functional; details: K562, 48 h
MCF7 = experiment: Growth inhibition of human MCF7 cells after 48 hrs by sulforhodamine B assay; assay type: functional; details: MCF7, 48 h
NCI-H460 = experiment: Growth inhibition of human NCI-H460 cells after 48 hrs by sulforhodamine B assay; assay type: functional; details: NCI-H460, 48 h
Malme-3M = experiment: Growth inhibition of human MALME-3M cells after 48 hrs by sulforhodamine B assay; assay type: functional
SF-295 = experiment: Growth inhibition of human SF295 cells after 48 hrs by sulforhodamine B assay; assay type: functional; details: SF-295, 48 h
SNB-75 = experiment: Growth inhibition of human SNB75 cells after 48 hrs by sulforhodamine B assay; assay type: functional; details: SNB-75, 48 h
[3] = Growth inhibition of human HCC2998 cells after 48 hrs by sulforhodamine B assay; assay type: functional; details: HCC 2998, 48 h
OVCAR-5 = experiment: Growth inhibition of human OVCAR5 cells after 48 hrs by sulforhodamine B assay; assay type: functional; details: OVCAR-5, 48 h
HOP-92 = experiment: Growth inhibition of human HOP92 cells after 48 hrs by sulforhodamine B assay; assay type: functional; details: HOP-92, 48 h
SK-OV-3 = experiment: Growth inhibition of human SKOV3 cells after 48 hrs by sulforhodamine B assay; assay type: functional; details: SK-OV-3, 48 h
DU-145 = experiment: Growth inhibition of human DU145 cells after 48 hrs by sulforhodamine B assay; assay type: functional; details: DU-145, 48 h
SF-539 = experiment: Growth inhibition of human SF539 cells after 48 hrs by sulforhodamine B assay; assay type: functional; details: SF-539, 48 h
COLO 205 = experiment: Growth inhibition of human COLO205 cells after 48 hrs by sulforhodamine B assay; assay type: functional; details: COLO 205, 48 h
UACC-257 = experiment: Growth inhibition of human UACC257 cells after 48 hrs by sulforhodamine B assay; assay type: functional; details: UACC-257, 48 h
ACHN = experiment: Growth inhibition of human ACHN cells after 48 hrs by sulforhodamine B assay; assay type: functional
MDA-MB-231 = experiment: Growth inhibition of human MDA-MB-231 cells after 48 hrs by sulforhodamine B assay; assay type: functional; details: MDA-MB-231, 48 h
[4] = Growth inhibition of human NCI-ADR-RES cells after 48 hrs by sulforhodamine B assay; assay type: functional
SK-MEL-28 = experiment: Growth inhibition of human SK-MEL-28 cells after 48 hrs by sulforhodamine B assay; assay type: functional; details: SK-MEL-28, 48 h
HL-60(TB) = experiment: Growth inhibition of human HL-60(TB) cells after 48 hrs by sulforhodamine B assay; assay type: functional; details: HL-60, 48 h
MDA-MB-435 = experiment: Growth inhibition of human MDA-MB-435 cells after 48 hrs by sulforhodamine B assay; assay type: functional; details: MDA-MB-435, 48 h
[5] = Growth inhibition of human Hs 578T cells after 48 hrs by sulforhodamine B assay; assay type: functional
M14 = experiment: Growth inhibition of human M14 cells after 48 hrs by sulforhodamine B assay; assay type: functional; details: M14, 48 h

Compound: COc1ccc(C(=O)N2c3ccccc3Sc3ccccc32)cc1F
- GI50 (CCRF-CEM): 300 nM
- GI50 [1]: 964 nM
- GI50 (HCT-15): 405 nM
- GI50 (LOX IMVI): 590 nM
- GI50 (UACC-62): 518 nM
- GI50 (OVCAR-8): 384 nM
- GI50 (SN12C): 760 nM
- GI50 (A549): 382 nM
- GI50 (T47D): 468 nM
- GI50 (RXF 393): 272 nM
- GI50 (OVCAR-4): 6560 nM
- GI50 (TK-10): 586 nM
- GI50 (KM12): 239 nM
- GI50 (786-0): 590 nM
- GI50 (A498): 211 nM
- GI50 (RPMI-8226): 259 nM
- GI50 (IGROV-1): 572 nM
- GI50 (UO-31): 2220 nM
- GI50 (NCI-H522): 102 nM
- GI50 (OVCAR-3): 312 nM
- GI50 (MOLT-4): 442 nM
- GI50 (SW-620): 358 nM
- GI50 (SK-MEL-5): 335 nM
- GI50 (SR): 271 nM
- GI50 (SK-MEL-2): 355 nM
- GI50 (BT-549): 604 nM
- GI50 (NCI-H23): 393 nM
- GI50 (HOP-62): 539 nM
- GI50 (HT-29): 251 nM
- inhibition (Ovis aries): 95%
- GI50 (SF-268): 819 nM
- GI50 (PC-3): 419 nM
- pIC50 [2]: 5.02
- GI50 (CAKI-1): 561 nM
- GI50 (HCT-116): 375 nM
- GI50 (MDA-MB-468): 249 nM
- GI50 (K562): 143 nM
- GI50 (MCF7): 316 nM
- GI50 (NCI-H460): 372 nM
- GI50 (Malme-3M): 991 nM
- GI50 (SF-295): 229 nM
- GI50 (SNB-75): 222 nM
- GI50 [3]: 314 nM
- GI50 (OVCAR-5): 522 nM
- GI50 (HOP-92): 209 nM
- GI50 (SK-OV-3): 322 nM
- GI50 (DU-145): 303 nM
- GI50 (SF-539): 290 nM
- GI50 (COLO 205): 244 nM
- GI50 (UACC-257): 671 nM
- GI50 (ACHN): 1890 nM
- GI50 (MDA-MB-231): 570 nM
- GI50 [4]: 112 nM
- GI50 (SK-MEL-28): 543 nM
- GI50 (HL-60(TB)): 267 nM
- GI50 (MDA-MB-435): 35 nM
- GI50 [5]: 285 nM
- GI50 (M14): 216 nM

Compound: O=C(c1ccc2c(c1)Sc1ccccc1N2)c1c[nH]c2ccccc12
- GI50 (CCRF-CEM): 380 nM
- GI50 [1]: 11600 nM
- GI50 (HCT-15): 489 nM
- GI50 (LOX IMVI): 446 nM
- GI50 (UACC-62): 532 nM
- GI50 (OVCAR-8): 1040 nM
- GI50 (SN12C): 888 nM
- GI50 (A549): 634 nM
- GI50 (T47D): 502 nM
- GI50 (RXF 393): 1270 nM
- GI50 (OVCAR-4): 16500 nM
- GI50 (TK-10): 2140 nM
- GI50 (KM12): 365 nM
- GI50 (786-0): 1900 nM
- GI50 (A498): 251 nM
- GI50 (RPMI-8226): 761 nM
- GI50 (IGROV-1): 620 nM
- GI50 (UO-31): 1030 nM
- GI50 (NCI-H522): 248 nM
- GI50 (OVCAR-3): 404 nM
- GI50 (MOLT-4): 3750 nM
- GI50 (SW-620): 406 nM
- GI50 (SK-MEL-5): 408 nM
- GI50 (SR): 382 nM
- GI50 (SK-MEL-2): 397 nM
- GI50 (BT-549): 398 nM
- GI50 (NCI-H23): 943 nM
- GI50 (HOP-62): 670 nM
- GI50 (HT-29): 368 nM
- inhibition (Ovis aries): 66%
- GI50 (SF-268): 1500 nM
- GI50 (PC-3): 654 nM
- pIC50 [2]: 4.41
- GI50 (CAKI-1): 462 nM
- GI50 (HCT-116): 404 nM
- GI50 (MDA-MB-468): 314 nM
- GI50 (K562): 395 nM
- GI50 (MCF7): 293 nM
- GI50 (NCI-H460): 429 nM
- GI50 (Malme-3M): 997 nM
- GI50 (SF-295): 323 nM
- GI50 (SNB-75): 326 nM
- GI50 [3]: 976 nM
- GI50 (OVCAR-5): 1750 nM
- GI50 (HOP-92): 970 nM
- GI50 (SK-OV-3): 533 nM
- GI50 (DU-145): 1420 nM
- GI50 (SF-539): 576 nM
- GI50 (COLO 205): 435 nM
- GI50 (UACC-257): 581 nM
- GI50 (ACHN): 1780 nM
- GI50 (MDA-MB-231): 1110 nM
- GI50 [4]: 247 nM
- GI50 (SK-MEL-28): 647 nM
- GI50 (HL-60(TB)): 382 nM
- GI50 (MDA-MB-435): 112 nM
- GI50 [5]: 702 nM
- GI50 (M14): 372 nM
